Data reported in patent US3962249A, “1-(3-Phenylpropyl)-4-furoylpiperazine derivatives” (Kyorin Seiyaku Kabushiki Kaisha, priority 1974, dated 1976).

Legend:
[1] = acute toxicity, LD50 in mice by subcutaneous injection (Up and Down method); assay type: in vivo; settings: mouse, sc, drugs dissolved in physiological saline
Protocol: **) LD50 in mice by subcutaneous injection of the drugs (calculated
by the Up and Down method). Drugs are dissolved in physiological saline

[2] = test system: acetic acid-induced writhing; experiment: inhibition of acetic acid-induced writhing counts in mice (analgesic effect); assay type: in vivo; settings: Mus musculus, read-out: ED50 (50% Effective dose)

Row | Compound | LD50 [1] | ED50 [2]
1 | C[C@@H]1CN(CCCc2ccccc2)[C@@H](C)CN1C(=O)c1ccco1.Cl (relative stereo) [Example 2, trans-1-(3-Phenylpropyl)-2,5-dimethyl-4-(2-furoyl)-piperazine hydrochloride] | > 500 mg/kg | 1.52 mg/kg
2 | Cc1ccccc1CCCN1C[C@@H](C)N(C(=O)c2ccco2)C[C@@H]1C.Cl (relative stereo) [Example 15, trans-1-[3-(o-Methylphenyl)propyl]-2,5-dimethyl-4-(2-furoyl)piperazine hydrochloride] | > 750 mg/kg | 1 mg/kg
3 | Cc1cccc(CCCN2C[C@@H](C)N(C(=O)c3ccco3)C[C@@H]2C)c1.Cl (relative stereo) [Example 16, trans-1-[3-(m-Methylphenyl)propyl]-2,5-dimethyl-4-(2-furoyl)piperazine hydrochloride] | > 500 mg/kg | 1.05 mg/kg
4 | Cl.O=C(c1ccco1)N1CCN(CCCc2ccccc2)CC1 [Example 1, 1-(3-Phenylpropyl)-4-(2-furoyl)piperazine hydrochloride] | 400 mg/kg | 7.8 mg/kg
5 | CC1CN(C(=O)c2ccco2)CCN1CCCc1ccccc1 (stereo not drawn) [Example 3, 1-(3-Phenylpropyl)-2-methyl-4-(2-furoyl)piperazine] | 300 mg/kg | 5.17 mg/kg
6 | CC1CN(CCCc2ccccc2)CCN1C(=O)c1ccco1.Cl (stereo not drawn) [Example 4, 1-(3-Phenylpropyl)-3-methyl-4-(2-furoyl)piperazine hydrochloride] | > 750 mg/kg | 3.42 mg/kg
7 | CC1(C)CN(CCCc2ccccc2)CCN1C(=O)c1ccco1.Cl [Example 5, 1-(3-Phenylpropyl)-3,3-dimethyl-4-(2-furoyl)piperazine hydrochloride] | > 500 mg/kg | 2.2 mg/kg
8 | Cc1ccccc1CCCN1CCN(C(=O)c2ccco2)CC1.Cl [Example 7, 1-[3-(o-Methylphenyl)propyl]-4-(2-furoyl)piperazine hydrochloride] | 400 mg/kg | 3 mg/kg
9 | Cc1cccc(CCCN2CCN(C(=O)c3ccco3)CC2)c1.Cl [Example 8, 1-[3-(m-Methylphenyl)propyl]-4-(2-furoyl)piperazine hydrochloride] | 350 mg/kg | 3.35 mg/kg
10 | CCOc1ccc(CCCN2CCN(C(=O)c3ccco3)CC2)cc1.Cl [Example 9, 1-[3-(p-Ethoxyphenyl)propyl]-4-(2-furoyl)piperazine hydrochloride] | 400 mg/kg | 8.85 mg/kg
11 | Cc1occc1C(=O)N1CCN(CCCc2ccccc2)CC1.Cl [Example 11, 1-(3-Phenylpropyl)-4-(2-methyl-3-furoyl)piperazine hydrochloride] | 170 mg/kg | 1.81 mg/kg
12 | Cc1cc(C(=O)N2CCN(CCCc3ccccc3)CC2)co1.Cl [Example 12, 1-(3-Phenylpropyl)-4-(5-methyl-3-furoyl)piperazine hydrochloride] | 200 mg/kg | 3.93 mg/kg
